Reference: patent US20140323304A1, “HERBICIDE COMPOSITION AND WEED CONTROL METHOD” (SDS BIOTECH K.K., priority 2008, published 2014)

Tests used:
Assay in all cases: Pot test on the foliar application (post-emergence treatment of weeds)
Assay type in all cases: in vivo
Conditions in all cases: day 10
Amaranthus viridis = tested on: Amaranthus viridis
Description: (§1) Field soil was packed in a 350 cm^2 plastic pot and seeds of Echinochloa utilis, Digitaria adscendens, Avena fatua, Amaranthus viridis, Chenopodium album and Ipomoea purpurea were sown and covered with soil of about 1 cm thickness. After water absorption and at day 25 after the seeding, sugi-refined oil diluted with a stock solution or water was sprayed uniformly in a spray volume of 200 ml per 1 m^2. The test was performed in a glass greenhouse at a temperature of from 18 to 30° C., and the soil was appropriately moistened from the bottom side.
(§2) Using each of the oily extracts obtained in Preparation Example 2, a flowable (emulsion) formulation was prepared according to Preparation Example 2. The herbicidal activity in the post-emergence stage was evaluated by the method according to Test Example 3 except that the dilution ratio of the spray solution with water was fixed to 4-fold dilution.
(§3) Using the liquid formulation prepared in Formulation Example 3, the herbicidal activity in the post-emergence stage was evaluated by the method according to Test Example 3 except that the test was conducted under a fixed condition that the solution was used as a stock solution without being diluted with water. Also, a formulation using water as a substitute of an oily extract, i.e. a formulation containing sodium bicarbonate only was prepared for comparison, and its herbicidal effect was evaluated as a comparative example. The formulation was sprayed uniformly in a spray volume of 200 ml per 1 m^2.
as §3, with “4,” for “3,”, “treatment of weeds” for “stage”, “calcium borate” for “sodium bicarbonate”
as §3, with “5,” for “3,”, “treatment of weeds” for “stage”, “d-limonene” for “sodium bicarbonate”
(§4) Using these essential oils, a flowable (emulsion) formulation was prepared according to Formulation Example 2. The herbicidal activity in the post-emergence treatment of weeds was evaluated by the method according to Test Example 3 except that the dilution ratio of the spray solution with water was fixed to 2-fold dilution.

Avena fatua = tested on: Avena fatua
Description: as §1, §2, §3
as §3, with “4,” for “3,”, “treatment of weeds” for “stage”, “calcium borate” for “sodium bicarbonate”
as §3, with “5,” for “3,”, “treatment of weeds” for “stage”, “d-limonene” for “sodium bicarbonate”
as §4

Chenopodium album = tested on: Chenopodium album
Description: as §1, §2, §3
as §3, with “4,” for “3,”, “treatment of weeds” for “stage”, “calcium borate” for “sodium bicarbonate”
as §3, with “5,” for “3,”, “treatment of weeds” for “stage”, “d-limonene” for “sodium bicarbonate”
as §4

Digitaria adscendens = tested on: Digitaria adscendens
Description: as §1, §2, §3
as §3, with “4,” for “3,”, “treatment of weeds” for “stage”, “calcium borate” for “sodium bicarbonate”
as §3, with “5,” for “3,”, “treatment of weeds” for “stage”, “d-limonene” for “sodium bicarbonate”
as §4

Echinochloa utilis = tested on: Echinochloa utilis
Description: as §1, §2, §3
as §3, with “4,” for “3,”, “treatment of weeds” for “stage”, “calcium borate” for “sodium bicarbonate”
as §3, with “5,” for “3,”, “treatment of weeds” for “stage”, “d-limonene” for “sodium bicarbonate”
as §4

Ipomoea purpurea = tested on: Ipomoea purpurea
Description: as §1, §2, §3
as §3, with “4,” for “3,”, “treatment of weeds” for “stage”, “calcium borate” for “sodium bicarbonate”
as §3, with “5,” for “3,”, “treatment of weeds” for “stage”, “d-limonene” for “sodium bicarbonate”
as §4

[1] = undiluted liquid formulation 200 ml/m^2, per 1 m^2: 20 ml of the essential oil and 12 g of sodium bicarbonate
[2] = undiluted liquid formulation 200 ml/m^2, per 1 m^2: 20 ml of the essential oil and 12 g of calcium borate
[3] = undiluted liquid formulation 200 ml/m^2, per 1 m^2: 20 ml of the essential oil and 20 ml of d-limonene

For O=C([O-])O.[Na+] [sodium bicarbonate], the “Herbicidal activity Amaranthus viridis” value (Amaranthus viridis; [1]) was 3 (26 to 35%), the “Herbicidal activity Avena fatua” value (Avena fatua; [1]) was 4 (36 to 45%) and the “Herbicidal activity Chenopodium album” value (Chenopodium album; [1]) was 4 (36 to 45%). For the same compound, the “Herbicidal activity Digitaria adscendens” value (Digitaria adscendens; [1]) was 4 (36 to 45%), the “Herbicidal activity Echinochloa utilis” value (Echinochloa utilis; [1]) was 3 (26 to 35%) and the “Herbicidal activity Ipomoea purpurea” value (Ipomoea purpurea; [1]) was 2 (16 to 25%).

In the case of calcium borate, the “Herbicidal activity Amaranthus viridis” value (Amaranthus viridis; [2]) is reported as 4 (36 to 45%), the “Herbicidal activity Avena fatua” value (Avena fatua; [2]) is reported as 5 (46 to 55%) and the “Herbicidal activity Chenopodium album” value (Chenopodium album; [2]) is reported as 4 (36 to 45%). For the same compound, the “Herbicidal activity Digitaria adscendens” value (Digitaria adscendens; [2]) was 4 (36 to 45%), the “Herbicidal activity Echinochloa utilis” value (Echinochloa utilis; [2]) was 4 (36 to 45%) and the “Herbicidal activity Ipomoea purpurea” value (Ipomoea purpurea; [2]) was 3 (26 to 35%).

In the case of C=C(C)[C@H]1CC=C(C)CC1 [Comparative Example (d-limonene only), d-limonene], the “Herbicidal activity Amaranthus viridis” value (Amaranthus viridis; [3]) is reported as 6 (56 to 65%), the “Herbicidal activity Avena fatua” value (Avena fatua; [3]) is reported as 5 (46 to 55%) and the “Herbicidal activity Chenopodium album” value (Chenopodium album; [3]) is reported as 6 (56 to 65%). For the same compound, the “Herbicidal activity Digitaria adscendens” value (Digitaria adscendens; [3]) was 7 (66 to 75%), the “Herbicidal activity Echinochloa utilis” value (Echinochloa utilis; [3]) was 5 (46 to 55%) and the “Herbicidal activity Ipomoea purpurea” value (Ipomoea purpurea; [3]) was 4 (36 to 45%).
